Data published in BindingDB's records for doi:10.1021/jm00100a018 (1992).
Counter-ions that a name gives are not always drawn.

What was measured:
[1] = Concentration tested in vitro to inhibit PAF-induced maximum aggregation (PAF-Antagonistic activity) by 50%.
[2] = as above; remark: listed apart in the source

IC50 [1] [nM] | IC50 [2] [nM] | SMILES
9000 |  | N#CC(c1cccc(C(F)(F)F)c1)N1CCN(C(=O)CC(c2ccccc2)c2ccccc2)CC1 (stereo unspecified)
220 |  | N#CC(c1cccnc1)N1CCN(C(=O)CNCC(c2ccccc2)c2ccccc2)CC1 (stereo unspecified)
15 |  | N#CC1(Nc2cccnc2)CCN(C(=O)CC(c2ccccc2)c2ccccc2)CC1
> 200000 |  | CCCCCCCCCCCCCCCC(=O)N1CCN(C(C#N)c2cccnc2)CC1 (stereo unspecified)
240 |  | N#CC(c1cccnc1)N1CCN(CC(=O)NCCC(c2ccccc2)c2ccccc2)CC1 (stereo unspecified)
530 |  | N#CC(c1cccnc1)N1CCN(C(=O)CNCCCc2ccccc2)CC1 (stereo unspecified)
60 |  | CN(CC(=O)N1CCN(C(C#N)c2cccnc2)CC1)C(c1ccccc1)c1ccccc1 (stereo unspecified)
360 |  | N#CC(c1cccnc1)N1CCN(C(=O)NC(c2ccccc2)c2ccccc2)CC1 (stereo unspecified)
5500 |  | N#CC(c1cccnc1)N1CCN(CCNC(=O)CC(c2ccccc2)c2ccccc2)CC1 (stereo unspecified)
 | 25000 | N#CC(c1cccnc1)N1CCN(C(=O)c2ccc3ccccc3c2)CC1 (stereo unspecified) [[4-(Naphthalene-2-carbonyl)-piperazin-1-yl]-pyridin-3-yl-acetonitrile; dihydrochloride]
400 |  | COc1cc(CCC(=O)N2CCN(C(C#N)c3cccnc3)CC2)cc(OC)c1OC (stereo unspecified) [Pyridin-3-yl-{4-[3-(3,4,5-trimethoxy-phenyl)-propionyl]-piperazin-1-yl}-acetonitrile; dihydrochloride; hydrate]
1900 |  | O=C(CC(c1ccccc1)c1ccccc1)N1CCN(C(=O)c2cc[n+]([O-])cc2)CC1
520 |  | O=C(CC(c1ccccc1)c1ccccc1)N1CCN(Cc2cccnc2)CC1
920 |  | CCCCCCCC(=O)N1CCN(C(C#N)c2cccnc2)CC1 (stereo unspecified)
230 |  | N#CC(c1cccnc1)N1CCN(C(=O)C(Cc2ccccc2)c2ccccc2)CC1 (stereo unspecified)
5700 |  | Cn1cc(C(C#N)N2CCN(C(=O)CC(c3ccccc3)c3ccccc3)CC2)c2ccccc21 (stereo unspecified)
11000 |  | N#CC(c1cccc([N+](=O)[O-])c1)N1CCN(C(=O)CC(c2ccccc2)c2ccccc2)CC1 (stereo unspecified)

IC50 [1] [nM] | IC50 [2] [nM] | SMILES
1300 |  | COc1cc(C(=O)N2CCN(C(=S)c3cccnc3)CC2)cc(OC)c1OC
7.5 |  | N#CC(c1cccnc1)N1CCN(C(=O)/C(=C/c2ccccc2)c2ccccc2)CC1 (stereo unspecified)
240 |  | N#CC(c1cccnc1)N1CCN(C(=O)CNCc2ccccc2)CC1 (stereo unspecified) [[4-(2-Benzylamino-acetyl)-piperazin-1-yl]-pyridin-3-yl-acetonitrile; dihydrochloride; hydrate]
24 |  | N#CC(c1cccnc1)C1CCN(C(=O)CNC(c2ccccc2)c2ccccc2)CC1 (stereo unspecified)
2600 |  | N#CC(c1cccnc1)N1CCN(C(=O)C(CCc2ccccc2)c2ccccc2)CC1 (stereo unspecified)
36 |  | CC(NCC(=O)N1CCN(C(C#N)c2cccnc2)CC1)c1ccccc1 (stereo unspecified)
2300 |  | N#CC(CN1CCN(C(=O)C(c2ccccc2)c2ccccc2)CC1)c1cccnc1 (stereo unspecified)
21 |  | CC(C(=O)N1CCN(C(C#N)c2cccnc2)CC1)c1ccccc1 (stereo unspecified) [[4-(2-Phenyl-propionyl)-piperazin-1-yl]-pyridin-3-yl-acetonitrile; dihydrochloride]
2500 |  | N#CC(c1cccnc1)N1CCN(C(=O)/C=C/c2ccccc2)CC1 (stereo unspecified)
21 |  | N#CC(c1cncs1)N1CCN(C(=O)CC(c2ccccc2)c2ccccc2)CC1 (stereo unspecified)
1900 |  | O=C(CC(c1ccccc1)c1ccccc1)N1CCN(C(=O)c2ccncc2)CC1
130 |  | N#CC(c1cccnc1)N1CCN(C(=O)CNc2ccccc2)CC1 (stereo unspecified)
44000 |  | COc1cc(C(=O)N2CCN(C(C#N)c3ccccn3)CC2)cc(OC)c1OC (stereo unspecified)
5200 |  | CC(C)(C)C(=O)N1CCN(C(C#N)c2cccnc2)CC1 (stereo unspecified)
36 |  | N#CC(c1cccnc1)N1CCN(CCNC(=O)C(c2ccccc2)c2ccccc2)CC1 (stereo unspecified)
2600 |  | O=C(C(c1ccccc1)c1ccccc1)N1CCN(Cc2cccnc2)CC1

Continued, compound first:

SMILES | IC50 [1] [nM] | IC50 [2] [nM]
N#CC(c1cccnc1)N1CCN(C(=O)OCC(c2ccccc2)c2ccccc2)CC1 (stereo unspecified) [4-(Cyano-pyridin-3-yl-methyl)-piperazine-1-carboxylic acid 2,2-diphenyl-ethyl ester; dihydrochloride; hydrate] | 26 | 
N#CC(c1ccncc1)N1CCN(CCNC(c2ccccc2)c2ccccc2)CC1 (stereo unspecified) | 36 | 
COc1cc(CC(=O)N2CCN(C(C#N)c3cccnc3)CC2)cc(OC)c1OC (stereo unspecified) | 460 | 
COc1cc(C(=O)N2CCN(Cc3cccnc3)CC2)cc(OC)c1OC [(4-Pyridin-3-ylmethyl-piperazin-1-yl)-(3,4,5-trimethoxy-phenyl)-methanone; dihydrochloride; hydrate] | 17000 | 
N#CC(c1cccnc1)N1CCN(C(=O)CN(Cc2ccccc2)Cc2ccccc2)CC1 (stereo unspecified) | 32 | 
N#CC(c1cccnc1)N1CCN(C(=O)CNC(Cc2ccccc2)c2ccccc2)CC1 (stereo unspecified) | 50 | 
N#CC(c1cccnc1)N1CCN(C(=O)Cc2cccc3ccccc23)CC1 (stereo unspecified) | 76 | 
CN(CCCc1ccccc1)CC(=O)N1CCN(C(C#N)c2cccnc2)CC1 (stereo unspecified) [(4-{2-[Methyl-(3-phenyl-propyl)-amino]-acetyl}-piperazin-1-yl)-pyridin-3-yl-acetonitrile; dihydrochloride; hydrate] | 2200 | 
O=C(c1cccnc1)N1CCN(C(=O)C(c2ccccc2)c2ccccc2)CC1 | 23000 | 
N#CC(c1ccncc1)N1CCN(C(=O)CC(O)(c2ccccc2)c2ccccc2)CC1 (stereo unspecified) | 2.7 | 
N#CC(c1cccnc1)N1CCN(C(=O)Cc2ccccc2)CC1 (stereo unspecified) | 2700 | 
O=C(C(c1ccccc1)c1ccccc1)N1CC[N+]([O-])(Cc2cccnc2)CC1 | 44000 | 
CC(C#N)(c1cccnc1)N1CCN(C(=O)C(c2ccccc2)c2ccccc2)CC1 (stereo unspecified) | 240 | 
N#Cc1cccc(C(C#N)N2CCN(C(=O)CC(c3ccccc3)c3ccccc3)CC2)c1 (stereo unspecified) | 7400 | 
CN(C)c1ccc(C(C#N)N2CCN(C(=O)CC(c3ccccc3)c3ccccc3)CC2)cc1 (stereo unspecified) | 210000 | 
CC(c1ccccc1)N(C)CC(=O)N1CCN(C(C#N)c2cccnc2)CC1 (stereo unspecified) | 240 | 
CCCCC(=O)N1CCN(C(C#N)c2cccnc2)CC1 (stereo unspecified) | 2600 | 
N#CC(c1ccncc1)N1CCN(C(=O)CCNC(c2ccccc2)c2ccccc2)CC1 (stereo unspecified) | 55 | 
N#CC(c1cccnc1)N1CCN(C(=O)CCCc2ccccc2)CC1 (stereo unspecified) | 260 | 
CN(CC(=O)N1CCN(C(C#N)c2cccnc2)CC1)c1ccccc1 (stereo unspecified) | 2800 | 
N#CC(c1cccnc1)N1CCN(C(=O)CNCCC(c2ccccc2)c2ccccc2)CC1 (stereo unspecified) | 86 | 
COc1cc(C(=O)N2CCN(C(=O)c3cc(OC)c(OC)c(OC)c3)CC2)cc(OC)c1OC | 9400 | 
N#CC(c1cccnc1)N1CCN(C(=O)C(Cc2ccccc2)Cc2ccccc2)CC1 (stereo unspecified) [[4-(2-Benzyl-3-phenyl-propionyl)-piperazin-1-yl]-pyridin-3-yl-acetonitrile; dihydrochloride; hydrate] | 11 | 
N#CC(c1cccnc1)N1CCN(C(=O)c2ccccc2)CC1 (stereo unspecified) [(4-Benzoyl-piperazin-1-yl)-pyridin-3-yl-acetonitrile; dihydrochloride] | 4800 | 

SMILES | IC50 [1] [nM] | IC50 [2] [nM]
COc1cc(C(=O)N2CCN(C(C#N)c3cccnc3)CC2)cc(OC)c1OC (stereo unspecified) [Pyridin-3-yl-[4-(3,4,5-trimethoxy-benzoyl)-piperazin-1-yl]-acetonitrile; dihydrochloride; hydrate] | 1900 | 
N#CC(c1ccncc1)N1CCN(C(=O)CC(c2ccccc2)c2ccccc2)CC1 (stereo unspecified) [[4-(3,3-Diphenyl-propionyl)-piperazin-1-yl]-pyridin-4-yl-acetonitrile; dihydrochloride] | 51 | 
N#CC(c1cccc(Cl)c1)N1CCN(C(=O)CC(c2ccccc2)c2ccccc2)CC1 (stereo unspecified) | 21000 | 
N#CC(=C1CCN(C(=O)CC(c2ccccc2)c2ccccc2)CC1)c1cccnc1 | 26 | 
COc1cc(C(=O)N2CCN(C(=O)c3cccnc3)CC2)cc(OC)c1OC | 5200 | 
N#CC(c1cccnc1)N1CCN(C(=O)Cc2ccc3ccccc3c2)CC1 (stereo unspecified) | 720 | 
CC(C(=O)N1CCN(C(C#N)c2cccnc2)CC1)(c1ccccc1)c1ccccc1 (stereo unspecified) [[4-(2,2-Diphenyl-propionyl)-piperazin-1-yl]-pyridin-3-yl-acetonitrile; dihydrochloride] | 1.9 | 
N#CC(c1cccnc1)N1CCN(C(=O)C(c2ccccc2)c2ccccc2)CC1 (stereo unspecified) | 10 | 
Cn1ccc(C(C#N)N2CCN(C(=O)CC(c3ccccc3)c3ccccc3)CC2)c1 (stereo unspecified) | 2600 | 
N#CC(c1cccnc1)N1CCN(C(=O)CCc2ccccc2)CC1 (stereo unspecified) [[4-(3-Phenyl-propionyl)-piperazin-1-yl]-pyridin-3-yl-acetonitrile; dihydrochloride; hydrate] | 520 | 
Cn1cccc1C(C#N)N1CCN(C(=O)CC(c2ccccc2)c2ccccc2)CC1 (stereo unspecified) | 25000 | 
N#CC(c1cccnc1)N1CCN(CCC(c2ccccc2)c2ccccc2)CC1 (stereo unspecified) | 630 | 
N#CC(c1cccnc1)N1CCC(OC(=O)CC(c2ccccc2)c2ccccc2)CC1 (stereo unspecified) [3,3-Diphenyl-propionic acid 1-(cyano-pyridin-3-yl-methyl)-piperidin-4-yl ester; dihydrochloride; hydrate] | 2600 | 
O=C(CC(c1ccccc1)c1ccccc1)N1CCC(Nc2cccnc2)CC1 [3,3-Diphenyl-1-[4-(pyridin-3-ylamino)-piperidin-1-yl]-propan-1-one; dihydrochloride; hydrate] | 87 | 
N#CC(c1cccnc1)N1CCN(C(=O)Cc2c[nH]c3ccccc23)CC1 (stereo unspecified) | 450 | 
NC(=O)C(c1cccnc1)N1CCN(C(=O)C(c2ccccc2)c2ccccc2)CC1 (stereo unspecified) | 200000 | 
COc1cc(CCC(=O)N2CCN(C(=O)c3cc(OC)c(OC)c(OC)c3)CC2)cc(OC)c1OC | 73000 | 
N#CC(c1cccnc1)N1CCN(C(=S)C(c2ccccc2)c2ccccc2)CC1 (stereo unspecified) | 23 | 
N#CC(c1cccnc1)N1CCN(C(=O)CN(Cc2ccccc2)c2ccccc2)CC1 (stereo unspecified) | 24 | 
N#CC(c1ccncc1)N1CCN(C(=O)CNC(=O)C(c2ccccc2)c2ccccc2)CC1 (stereo unspecified) | 680 | 
CC(c1cccnc1)N1CCN(C(=O)C(c2ccccc2)c2ccccc2)CC1 (stereo unspecified) | 1200 | 
N#CC(c1cccnc1)N1CCN(C(=O)CNc2cccc3ccccc23)CC1 (stereo unspecified) | 2600 | 
N#CC(c1cccnc1)C1CCN(C(=O)C(c2ccccc2)c2ccccc2)CC1 (stereo unspecified) | 21 | 
N#CC1(Nc2cccnc2)CCN(C(=O)CNC(c2ccccc2)c2ccccc2)CC1 | 200 | 
